In ChEMBL document CHEMBL5303304, “EUbOPEN Chemogenomics Library - IncuCyte” (2023):

Columns and labels:
Type in all cases: toxicity, cell-based
Fibroblast = experiment: Incucyte cell viability with human fibroblast; conditions: 10 µM, compound concentration 10 uM
HEK-293T = experiment: Incucyte cell viability with HEK293T; conditions: human, 10 µM, compound concentration 10 uM
U2OS = experiment: Incucyte cell viability with U2OS; conditions: human, 10 µM, compound concentration 10 uM
Note: unitless GR value; below 1 slowed growth and below 0 cell loss.

Row | Structure (SMILES) | Growth Rate (Fibroblast; 0 h, replicate number 2) | Growth Rate (Fibroblast; 6 h, replicate number 1) | Growth Rate (Fibroblast; 6 h, replicate number 2) | Growth Rate (Fibroblast; 12 h, replicate number 1) | Growth Rate (Fibroblast; 12 h, replicate number 2) | Growth Rate (Fibroblast; 18 h, replicate number 2) | Growth Rate (Fibroblast; 24 h, replicate number 2) | Growth Rate (HEK-293T; 6 h, replicate number 1) | Growth Rate (HEK-293T; 6 h, replicate number 2) | Growth Rate (HEK-293T; 12 h, replicate number 2) | Growth Rate (HEK-293T; 18 h, replicate number 1) | Growth Rate (HEK-293T; 18 h, replicate number 2) | Growth Rate (HEK-293T; 24 h, replicate number 1) | Growth Rate (HEK-293T; 24 h, replicate number 2) | Growth Rate (U2OS; 6 h, replicate number 1) | Growth Rate (U2OS; 12 h, replicate number 1) | Growth Rate (U2OS; 18 h, replicate number 1) | Growth Rate (U2OS; 24 h, replicate number 1) | Growth Rate (HEK-293T; 12 h, replicate number 1) | Growth Rate (U2OS; 24 h, replicate number 2) | also measured
1 | Nc1ncnc2c1c(COc1cccc(Cl)c1)nn2C1CCOCC1 | -0.61 | 0.82 | 0.47 | 0.9 | 0.6 | 0.74 | 0.92 | 0.75 | 0.59 | 0.61 | 0.83 | 0.5 | 0.79 | 0.37 | 0.51 | 0.63 | 0.81 | 0.83 |  |  | 
2 | C=CC(=O)Nc1cccc(C(=O)Nc2ccc(Nc3cc(-c4c(-c5ccc(F)cc5)nc(SC)n4C)ccn3)cc2)c1 | 0.71 |  |  |  |  |  |  | 0.54 | 0.39 | 0.34 | 0.47 | 0.46 | 0.57 |  |  |  |  |  | 0.55 | 0.97 | Growth Rate (Fibroblast; 0 h, replicate number 1): -0.95
3 | NC(=O)c1ccc(-c2nc(-c3ccc4c(c3)OCCO4)c(-c3ccccn3)[nH]2)cc1 | -0.85 |  | 0.41 | 0.77 | 0.45 | 0.63 | 0.74 | 0.37 | 0.65 | 0.81 | 0.8 | 0.74 | 0.79 | 0.86 | 0.21 | 0.58 | 0.55 | 0.5 | 0.76 | 0.75 | Growth Rate (Fibroblast; 0 h, replicate number 1): -1; Growth Rate (U2OS; 12 h, replicate number 2): 0.94; Growth Rate (U2OS; 18 h, replicate number 2): 0.86
4 | c1ccc(C2CCN(c3cnc4c(N5CCOCC5)nccn34)CC2)cc1 |  |  | 0.96 |  | 0.56 | 0.64 |  | 0.74 | 0.9 |  |  | 0.99 |  |  | 0.91 | 0.92 | 0.9 |  | 0.94 |  | Growth Rate (Fibroblast; 0 h, replicate number 1): -0.87; Growth Rate (Fibroblast; 24 h, replicate number 1): 1
5 | Cc1cn([C@H](C)CC#N)c(=O)c2cc(Cn3nc(C(F)F)cc3Cl)nn12 |  | 0.89 | 0.78 |  | 0.58 | 0.99 |  | 0.81 | 0.66 | 0.82 |  | 0.9 | 0.97 | 0.89 | 0.38 | 0.34 | 0.52 | 0.64 |  |  | Growth Rate (Fibroblast; 0 h, replicate number 1): -1; Growth Rate (Fibroblast; 24 h, replicate number 1): 0.93
6 | CN1CCN(C(=O)c2ccc3cc2OCCOCCNc2ccn4ncc-3c4n2)CC1 | 0.92 | 0.73 | 0.92 |  |  |  |  | 0.93 | 0.6 | 0.93 | 0.93 | 0.85 | 0.92 | 0.89 |  |  | 0.81 |  |  |  | Growth Rate (U2OS; 0 h, replicate number 1): -0.07
7 | Nc1ncc2c(n1)-c1c([nH]c3ccc(C4CC4)cc13)CCCC2 |  | 0.08 | 0.5 | 0.76 | 0.75 | 0.79 |  | 0.37 | 0.69 | 0.69 | 0.74 | 0.8 | 0.71 | 0.85 |  | 0.85 | 0.93 | 1 | 0.63 | 0.88 | Growth Rate (U2OS; 0 h, replicate number 1): -0.99; Growth Rate (U2OS; 0 h, replicate number 2): 0.47; Growth Rate (U2OS; 6 h, replicate number 2): -0.85; Growth Rate (U2OS; 12 h, replicate number 2): 0.64; Growth Rate (U2OS; 18 h, replicate number 2): 0.94
8 | Cc1ccc2c(N)c(C(=O)NC3CCc4cc(N5CC6CCC(C5)N6)ccc4C3)sc2n1.O=CO (centres undefined) |  | 0.09 | -0.1 | 0.09 | -0.17 | -0.26 | -0.21 | -0.55 | -0.64 | -0.55 | -0.39 | -0.46 | -0.32 | -0.37 |  | 0.47 | 0.35 | 0.24 | -0.47 | 0.08 | Growth Rate (Fibroblast; 18 h, replicate number 1): 0.05; Growth Rate (Fibroblast; 24 h, replicate number 1): 0.01; Growth Rate (U2OS; 0 h, replicate number 2): 0.59; Growth Rate (U2OS; 6 h, replicate number 2): 0.37; Growth Rate (U2OS; 12 h, replicate number 2): 0.12; Growth Rate (U2OS; 18 h, replicate number 2): 0.15
9 | CCN(CC)C/C=C/C(=O)Nc1cc2c(Nc3ccc(F)c(Cl)c3)ncnc2cc1OCC1CC1 | -0.83 | 0.22 | -0.01 | 0 | -0.26 | -0.4 | -0.46 | -0.54 | -0.45 | -0.32 | -0.32 | -0.35 | -0.25 | -0.29 | 0.31 | -0.19 | -0.19 | -0.24 | -0.39 | -0.01 | Growth Rate (Fibroblast; 18 h, replicate number 1): -0.12; Growth Rate (Fibroblast; 24 h, replicate number 1): -0.22; Growth Rate (U2OS; 0 h, replicate number 1): -0.62; Growth Rate (U2OS; 6 h, replicate number 2): 0.36; Growth Rate (U2OS; 12 h, replicate number 2): 0.08; Growth Rate (U2OS; 18 h, replicate number 2): 0.06
10 | CN(C)C/C=C/C(=O)Nc1cc2c(Nc3ccc(F)c(Cl)c3)ncnc2cc1OC[C@@H]1CCCO1 | 0.77 | -0.42 | -0.39 | -0.37 | -0.36 | -0.29 | -0.29 | -0.57 | -0.55 | -0.34 | -0.27 | -0.29 | -0.2 | -0.22 | -0.2 | -0.23 | -0.23 | -0.17 | -0.36 | -0.19 | Growth Rate (Fibroblast; 18 h, replicate number 1): -0.32; Growth Rate (Fibroblast; 24 h, replicate number 1): -0.26; Growth Rate (U2OS; 0 h, replicate number 2): 0.7; Growth Rate (U2OS; 6 h, replicate number 2): -0.14; Growth Rate (U2OS; 12 h, replicate number 2): -0.07; Growth Rate (U2OS; 18 h, replicate number 2): -0.08
11 | O=C(Nc1ccc(Cl)c(-c2ccccn2)c1)c1cccc(COc2ccc(Br)cc2CNCCO)c1.O=CO | 0.59 |  | 0.09 | 0.51 | -0.14 | -0.28 | -0.36 | -0.57 | -0.56 | -0.32 | -0.3 | -0.2 | -0.2 | -0.07 | 0.38 | 0.61 | 0.3 | 0.53 | -0.44 | 0.33 | Growth Rate (Fibroblast; 0 h, replicate number 1): -0.98; Growth Rate (Fibroblast; 18 h, replicate number 1): 0.29; Growth Rate (Fibroblast; 24 h, replicate number 1): 0.25; Growth Rate (U2OS; 6 h, replicate number 2): 0.78; Growth Rate (U2OS; 12 h, replicate number 2): 0.6; Growth Rate (U2OS; 18 h, replicate number 2): 0.36
12 | CN1CCN(C(=O)Cc2ccc(N/C(=C3\C(=O)Nc4cc(Cl)ccc43)c3ccccc3)cc2)CC1 | 0.06 | 0.12 | -0.1 | 0.24 | 0.01 | 0.21 | 0.28 | 0.26 | 0.83 | 0.92 | 0.84 | 0.82 | 0.8 | 0.73 |  |  |  |  | 0.71 | 0.58 | Growth Rate (Fibroblast; 18 h, replicate number 1): 0.44; Growth Rate (Fibroblast; 24 h, replicate number 1): 0.48; Growth Rate (U2OS; 6 h, replicate number 2): 0.9; Growth Rate (U2OS; 12 h, replicate number 2): 0.86; Growth Rate (U2OS; 18 h, replicate number 2): 0.7
13 | CC(=O)N(CCN(C)C)c1ccc(N/C(=C2\C(=O)Nc3cc(Cl)ccc32)c2ccccc2)cn1 | -1 | -0.62 | -0.8 | -0.65 | -0.8 | -0.76 | -0.72 | -0.78 | -0.92 | -0.71 | -0.45 | -0.55 | -0.37 | -0.42 | -0.35 | 0.03 | 0.02 | -0.14 | -0.58 | -0.13 | Growth Rate (Fibroblast; 18 h, replicate number 1): -0.63; Growth Rate (Fibroblast; 24 h, replicate number 1): -0.58; Growth Rate (U2OS; 6 h, replicate number 2): 0.34; Growth Rate (U2OS; 12 h, replicate number 2): 0.23; Growth Rate (U2OS; 18 h, replicate number 2): 0.1
